The source of these data is patent US4889871A, “Alkoxy-substituted dihydrobenzopyran-2-carboxylate derivatives” (G. D. Searle & Co., priority 1988, dated 1989).

The target in one assay is T1, LTD4 receptor (Cavia porcellus, UniProt Q2NNR5).
T1 construct: from tissue; host or cells: lung membranes of male Hartley guinea pigs
T1 sequence (Q2NNR5 1-340): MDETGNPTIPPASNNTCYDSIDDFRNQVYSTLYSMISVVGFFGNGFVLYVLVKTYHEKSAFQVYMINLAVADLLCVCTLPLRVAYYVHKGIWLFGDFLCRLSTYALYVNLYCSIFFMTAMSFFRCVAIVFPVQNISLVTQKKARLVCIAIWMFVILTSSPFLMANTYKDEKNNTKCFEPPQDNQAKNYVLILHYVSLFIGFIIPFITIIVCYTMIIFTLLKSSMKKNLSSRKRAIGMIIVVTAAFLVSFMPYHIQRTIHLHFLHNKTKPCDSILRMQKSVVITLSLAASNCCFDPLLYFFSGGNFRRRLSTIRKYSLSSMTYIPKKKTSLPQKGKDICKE
Nature of the assay: LTD4 receptor binding assay using guinea pig lung membrane preparations. Particulars: for Receptor Binding LTD4 IC50: Table 1, results are from Table 3, 10^-5 M. On the procedure:
MEMBRANE PREPARATIONS: For each membrane preparation, 10-11 male Hartley guinea pigs, weighing less than 350 gm, were sacrificed by guillotine. The lungs were rapidly removed and placed in ice-cold 50 mM Trisma 7.0 buffer. After all the lungs were collected, each was probed free of bronchial tissue to at least the level of tertiary branching as observed through a dissecting lamp. The tissue was minced with a razor blade on a damp paper towel and placed into fresh ice-cold Trisma 7.0 buffer. When all the tissues had been processed, they were pooled, drained and weighed. Nine volumes of cold buffer were added and the tissue was polytroned for 6-10 second bursts with a 1 minute cool down period in an ice bath between each burst. The homogenate was filtered through a gauze pad and centrifuged at 1085× g for 15 minutes at 4° C. Supernatants were saved and centrifuged at 40,000× g for 20 minutes at 4° C. This time, supernatants were discarded and the pellets were resuspended in 30-35 ml fresh Trisma 7.0 buffer by 1-10 second bursts with the polytron. The materials were centrifuged again at 40,000× g. Supernatants were again discarded. Each pellet was resuspended again with approximately 7 ml buffer. All this material was pooled into a 100 ml polypropylene container and stirred with a magnetic stirring bar. The tubes were rinsed with small amounts of buffer and the rinse was added to the membrane preparation. The homogenized membranes were aliquoted into 1.5 ml microfuge tubes and frozen at -70° C. Three aliquots were submitted for protein determinations by FPB (fluorescamine protein binding) assay.
Unless otherwise indicated, all binding experiments were performed in a final incubation volume of 250 μl. […] Both materials were received in solutions. […] Both solutions were brought to appropriate assay concentrations by dilution in assay buffer consisting of 50 mM Trisma 7.4 with 5 mM L-cysteine and 20 mM CaCl2. Membranes were also diluted with this assay buffer. […] Diluent was added to all other appropriate control tubes. Incubations were conducted for 30 minutes at 25° C. in a shaking water bath. Termination of the reaction was achieved by pouring the incubate over 2.5 cm Whatman GF/C filters soaked in assay buffer and set over the ports of Millipore filter vacuum manifolds. Filters were rinsed with 4 ml ice cold assay buffer 3 times. The filters were removed, placed in 10 ml Aquasol scintillation cocktail and allowed to cool in the dark for 2 hours prior to counting. All samples were corrected for background and isotope decay before converting DPM determination to mass.
These values were logit-transformed and linear regression was performed on the dose-response data. All dose-response sets used to calculate IC50 values contained data from 3-6 compound concentrations. […] IC50 values were calculated from the regression equation for the line.
male guinea pig lung homogenate which was aliquoted and stored at
-70° C. The particular preparation used to test the compounds of
Protein concentrations in these assays were adjusted
to provide aproximately 0.1 nM receptor in the presence of lnM ^3
HLTD4. Incubation was conducted for 30 min.
at 24° C. and filtration methods were used to separate bound from
tested were intially solubilized in DMSO. Each compound was evaluated at
dose of 10 μM (10^-5 M) in triplicate in 2 separate assays. The

Assay [1] relates to human neutrophils. The assay can be described thus: Modified Boyden chamber chemotaxis (LTB4, human neutrophils). It is filed as cell-based. Particulars: Neutrophil. On the procedure:
Human neutrophils were isolated from citrated peripheral blood using standard techniques of dextran sedimentation, followed by centrifugation on Histopaque® sterile solution (Sigma) or Ficoll-paque® (Pharmacia) and hypotonic lysis of erythrocytes. A final cell suspension of 3.4×10^6 neutrophils/ml of HEPES-buffered Hanks balanced salt solution (HBSS, pH 7.3) was added to the upper well (0.8 ml) of a modified Boyden chamber (blind well). The lower well (0.2 ml), separated by a polycarbonate membrane (Nuleopore Corp.), contained HBSS or 3×10^-8 M LTB4 in the presence of absence of test compound. Following a 90 minute incubation at 37° C. in 5% CO2 -95% air, cells from the lower well were lysed and nuclei counted in a Model S-Plus-IV Coulter Counter. Percent inhibition was calculated from cell counts corrected for random migration by subtracting the mean of the HBSS control.

The target in another assay is T2, guinea pig ileum (Cavia porcellus, UniProt Q2NNR5).
T2 construct: from tissue; host or cells: guinea pig ileum segments
T2 sequence (Q2NNR5 1-340): T1 sequence (Q2NNR5 1-340)
Nature of the assay: LTD4 antagonism in guinea pig ileum (contraction). Particulars: for Kb: read-out: Guinea Pig Ileum Contraction pA2 (converted). On the procedure: Fresh segments of guinea pig ileum were suspended in 2 ml. tissue baths containing oxygenated modified Tyrodes solution. […] The ileum segments were washed and rested between exposures to agonist. Following this, the tissues were incubated with a single concentration of test compound and the agonist dose-response procedure was repeated. The dose ration is a measure of the antagonist's ability to shift the agonist dose-response curve to the right. It is derived as the concentration of agonist necessary to reach a given response level in the present (A') versus the absence (A) of antagonist. For example, if the test concentration of compound had no effect on the agonist-induced response (A'=A) the dose-ratio would approximate 1. […] One dose-ratio value is determined for each strip of ileum used to test antagonist. […] Schild analysis examines the linearity of the function described by the dose-ratios written as log (A'/A) versus antagonist concentration. If linearity is confirmed and the slope approximates -1, inhibition is considered to be competitive. […] This value is considered to be a measure of the affinity of the competitive antagonist.

The next assay has as its target T3, LTB4 receptor (Homo sapiens, UniProt Q15722).
T3 construct: Neutrophils were purified from venous blood of normal human donors; endogenous in cells; host or cells: purified human blood neutrophils (intact cells)
Nature of the assay: LTB4 receptor binding assay ((3H) LTB4, human neutrophils). Particulars: Table 1. On the procedure:
Neutrophils (4-6×10^6) in 1 ml Hanks' balanced salt solution containing 10 mM HEPES buffer (HBSS), pH 7.4 and 30 μM nordihydroguaiaretic acid were incubated with 0.6×10^-9 M (^3 H) LTB4 in the presence or absence of test compounds. The incubation was carried out at 0° C. for 45 minutes and terminated by adding 5 ml of ice-cold HBSS followed by rapid filtration of incubation mixture under vacuum through GF/C glass fiber filters. The filters were further washed with 10 ml HBSS and radioactivity was determined. Specific binding was defined as the difference between total binding and nonspecific binding which was not displaced by 10^-7 M unlabeled LTB4. All data refer to specific binding.

The test system of assay [2] is human neutrophils. The assay can be described thus: Human neutrophil degranulation assay (LTB4-induced, myeloperoxidase release). It is filed as cell-based. Particulars: Table 1, LTB4 (5×10^-8 M). As to the method:
Neutrophils were purified from venous blood of normal human donors using standard techniques of dextran sedimentation, centrifugation on Ficoll-paque® (Pharmacia) or Histopaque® sterile solution (Sigma) and hypotonic lysis of erythrocytes (Boyum, A., Isolation of Leukocytes From Human Blood: Further Observations. Scand. J. Lab. Clin. Invest., 21 (Suppl. 97): 31, 1968). The purity of isolated neutrophils was >95%.
Neutrophil degranulation was determined by measuring the release of myeloperoxidase activity into the incubation medium. Neutrophils (3×10^6) in 1 ml HBSS solution were preincubated with cytochalasin B (5 μg) at 37° C. for 5 minutes, followed by preincubation with test compounds for 7 minutes. Neutrophils were then incubated for 2 to 20 minutes with either LTB4 (5×10^-8 M) or the chemotactic peptide f-met-leu-phe (5×10^-6 M) to induce degranulation. Following incubation, samples were centrifuged and myeloperoxidase was extracted from the cell pellets by sonication in phosphate buffer containing 0.4% Triton X-100. Triton X-100 was also added to the supernatants to a concentration of 0.4%. The supernatants and the pellet - extracts were then assayed spectrophotometrically for myeloperoxidase activity by determining the rate of decomposition of H2 O2 with o-dianisidine as hydrogen donor as described by Renlund, et al. (Renlund, D. G., MacFarlane, J. L., Christensen, R. D., Lynch, R. E., and Rothstein, G., A Quantitative And Sensitive Method For Measurement Of Myeloperoxidase, Clinical Research 28:75A, 1980). Myeloperoxidase activity released into the supernatant was expressed as the percent of the average total activity (pellet plus supernatant).

Setting [3] is: read-out: LTD4 Receptor Binding Activity.
The mark [4] stands for this setting: read-out: LTD4 Receptor Binding Percent Inhibition, Test #1, triplicate, 30 min, 24° C.
Where [5] appears, read: read-out: LTD4 Receptor Binding Percent Inhibition, Test #2, triplicate, 30 min, 24° C.

Molecules are shown by their SMILES. Like-named read-outs stand apart in the source and are kept apart here.

T3 sequence (Q15722 whole entry): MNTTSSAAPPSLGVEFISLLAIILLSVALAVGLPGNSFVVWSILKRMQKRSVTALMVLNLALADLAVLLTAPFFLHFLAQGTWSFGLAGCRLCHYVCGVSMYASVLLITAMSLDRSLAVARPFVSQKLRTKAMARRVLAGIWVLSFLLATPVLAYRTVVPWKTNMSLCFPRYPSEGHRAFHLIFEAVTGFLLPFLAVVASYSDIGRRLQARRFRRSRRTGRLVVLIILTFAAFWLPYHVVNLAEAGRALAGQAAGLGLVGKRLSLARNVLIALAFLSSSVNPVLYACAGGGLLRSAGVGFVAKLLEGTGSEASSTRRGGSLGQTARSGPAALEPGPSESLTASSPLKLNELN

Usually IC50 stands for the concentration at which inhibition is half-maximal. Read a high IC50 as weaker potency in that assay. Turning to `CCCc1c(OCCCOc2ccc(C(C)=O)c(OC)c2CCC)ccc2c1OC(CCC(=O)O)CC2` (stereo not drawn) [Example 20, 7-[3-(4-acetyl-3-methoxy-2-propylphenoxy)propoxy]-3,4-dihydro-8-propyl-2H-1-benzopyran-2-propanoic acid], at LTD4 receptor, the “Receptor Binding LTD4 IC50” value is “Inactive”. The inhibition at 10 µM is below 45% on LTD4 receptor (setting [3]), 13% at LTD4 receptor (setting [4]) and 23.5% on LTD4 receptor (setting [5]). For the same compound, the results for the IC50 with human neutrophils [1], at LTB4 receptor and with human neutrophils [2] were 1700 nM, 500 nM and 40 nM, respectively. The Kb at guinea pig ileum is 316 nM.

For the compound `CCCc1c(OCCCOc2ccc3c(=O)cc(C(=O)O)oc3c2CCC)ccc(C(C)=O)c1OC` [Example 7, 7-[3-(4-acetyl-3-methoxy-2-propylphenoxy)propoxy]-4-oxo-8-propyl-4H-1-benzopyran-2-carboxylic acid], the “Receptor Binding LTD4 IC50” value on LTD4 receptor was “Inactive”. For the same compound, the inhibition at 10 µM on LTD4 receptor (setting [3]) is below 45%; on LTD4 receptor (setting [4]), 28.9%; at LTD4 receptor (setting [5]) it was 34.4%. Also, the figures for the IC50 with human neutrophils [1], on LTB4 receptor and with human neutrophils [2] were 3600 nM, 500 nM and 3700 nM, respectively. Besides, the Kb at guinea pig ileum is 182 nM.

For the compound `CCCc1c(OCCCOc2ccc3c(c2CCC)OC(C(=O)O)CC3)ccc(C(C)=O)c1O` (stereo not drawn) [reference compound], at guinea pig ileum, the Kb was 25.1 nM.

In the case of `CCCc1c(OCCCCCOc2ccc(C(C)=O)c(OC)c2CCC)ccc2c1OC(C(=O)O)CC2` (stereo not drawn) [Example 15, 7-[[5-(4-acetyl-3-methoxy-2-propylphenoxy)pentyl]oxy]-3,4-dihydro-8-propyl-2H-1-benzopyran-2-carboxylic acid], the results for the IC50 with human neutrophils [1], at LTB4 receptor and in the assay with human neutrophils [2] were 6600 nM, 500 nM and 1500 nM, respectively. At guinea pig ileum (Table 2, LTD4 agonist), the “Guinea Pig Ileum Contraction pA2” value is reported as “Inactive”.
